Measured values as given in the NIST ThermoML archive (doi:10.1021/acs.jced.9b00752).

Assay: mn = molality of the nth substance listed, in mol/kg
Conditions: 100 kPa, Liquid, Vibrating tube method

O=C(O)[C@@H]1CCCN1 [L-proline] + O
mass density [kg/m3]
Conditions | 273.65 K | 274.15 K | 274.65 K | 275.15 K | 275.65 K | 276.15 K | 276.65 K | 277.15 K | 277.65 K | 278.15 K
m1 = 0.0132 | 1000.34 | 1000.37 | 1000.39 | 1000.4 | 1000.41 | 1000.42 | 1000.43 | 1000.43 | 1000.43 | 1000.42
m1 = 0.0326 | 1001.02 | 1001.05 | 1001.07 | 1001.08 | 1001.09 | 1001.1 | 1001.11 | 1001.11 | 1001.1 | 1001.09
m1 = 0.0542 | 1001.77 | 1001.79 | 1001.81 | 1001.82 | 1001.84 | 1001.84 | 1001.84 | 1001.85 | 1001.84 | 1001.83
m1 = 0.0692 | 1002.29 | 1002.31 | 1002.32 | 1002.34 | 1002.34 | 1002.35 | 1002.35 | 1002.35 | 1002.34 | 1002.33
m1 = 0.0808 | 1002.69 | 1002.71 | 1002.73 | 1002.74 | 1002.75 | 1002.75 | 1002.75 | 1002.75 | 1002.74 | 1002.73
m1 = 0.1014 | 1003.41 | 1003.43 | 1003.45 | 1003.46 | 1003.46 | 1003.46 | 1003.46 | 1003.46 | 1003.45 | 1003.43
m1 = 0.1196 | 1004.09 | 1004.11 | 1004.12 | 1004.13 | 1004.13 | 1004.13 | 1004.13 | 1004.13 | 1004.12 | 1004.1
m1 = 0.1326 | 1004.5 | 1004.52 | 1004.53 | 1004.54 | 1004.54 | 1004.54 | 1004.54 | 1004.54 | 1004.52 | 1004.51
m1 = 0.1555 | 1005.27 | 1005.29 | 1005.3 | 1005.3 | 1005.3 | 1005.3 | 1005.3 | 1005.29 | 1005.28 | 1005.26
m1 = 0.1568 | 1005.41 | 1005.42 | 1005.43 | 1005.44 | 1005.44 | 1005.44 | 1005.43 | 1005.43 | 1005.41 | 1005.39
m1 = 0.1835 | 1006.23 | 1006.25 | 1006.25 | 1006.26 | 1006.26 | 1006.25 | 1006.25 | 1006.24 | 1006.22 | 1006.2
m1 = 0.2076 | 1007.04 | 1007.05 | 1007.05 | 1007.05 | 1007.05 | 1007.04 | 1007.04 | 1007.03 | 1007.01 | 1006.99
m1 = 0.2212 | 1007.72 | 1007.73 | 1007.73 | 1007.73 | 1007.72 | 1007.72 | 1007.71 | 1007.7 | 1007.68 | 1007.66
